Measurements published in ChEMBL document CHEMBL1153022, “Pyrrolidinoindoline alkaloids from Selaginella moellendorfii” (J Nat Prod, 2009).
pIC50: −log10 of the molar value. Active and inactive are the calls of the source. The rule behind the calls is not given here.

What was measured:
[1] = test system: A549; assay: Cytotoxicity against human A549 cells up to 200 ug/ml by SRB method; format: functional, cell-based
[2] = biological target: Acetylcholinesterase (Homo sapiens) (UniProt P22303); assay: Inhibition of human AChE up to 200 ug/ml by Ellman's assay
[3] = test system: Staphylococcus aureus; assay: Antibacterial activity against Staphylococcus aureus up to 200 ug/ml by microdilution assay; format: functional, organism-based
[4] = test system: K562; assay: Cytotoxicity against human K562 cells up to 200 ug/ml by MTT assay; format: functional, cell-based
[5] = test system: Escherichia coli; assay: Antibacterial activity against Escherichia coli up to 200 ug/ml by microdilution assay; format: functional, organism-based
[6] = test system: K562; assay: cells; conditions: Homo sapiens
Description: Cytotoxicity against human K562 cells by MTT assay

[7] = test system: A549; assay: cells; conditions: Homo sapiens
Description: Cytotoxicity against human A549 cells by SRB method

Sequence of Acetylcholinesterase (Homo sapiens) (P22303 whole entry): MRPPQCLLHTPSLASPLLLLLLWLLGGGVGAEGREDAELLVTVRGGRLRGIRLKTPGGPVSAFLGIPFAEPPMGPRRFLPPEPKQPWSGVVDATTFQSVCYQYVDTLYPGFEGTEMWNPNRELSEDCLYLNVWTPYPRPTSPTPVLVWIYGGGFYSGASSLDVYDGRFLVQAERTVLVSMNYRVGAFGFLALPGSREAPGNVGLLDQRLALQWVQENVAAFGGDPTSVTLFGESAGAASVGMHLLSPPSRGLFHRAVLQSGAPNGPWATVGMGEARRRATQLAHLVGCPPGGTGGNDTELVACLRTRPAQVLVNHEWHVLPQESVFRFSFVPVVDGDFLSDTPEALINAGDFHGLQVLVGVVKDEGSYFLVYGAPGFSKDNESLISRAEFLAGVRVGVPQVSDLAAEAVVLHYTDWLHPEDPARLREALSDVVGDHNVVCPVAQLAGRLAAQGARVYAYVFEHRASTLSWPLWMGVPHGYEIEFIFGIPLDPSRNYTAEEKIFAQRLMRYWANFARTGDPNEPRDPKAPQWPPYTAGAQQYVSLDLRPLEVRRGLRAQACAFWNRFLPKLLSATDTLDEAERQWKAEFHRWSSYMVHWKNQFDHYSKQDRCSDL

| Structure (SMILES) | Activity [1] | Activity [2] | Activity [3] | Activity [4] | Activity [5] | pIC50 [6] | pIC50 [7] |
| --- | --- | --- | --- | --- | --- | --- | --- |
| C/C(=C\C[C@@]12CCN(C)[C@@H]1[N+](C)(C)c1ccccc12)C(=O)N[C@@H](Cc1ccccc1)C(=O)[O-] | inactive | inactive | inactive | inactive | inactive |  |  |
| COc1cccc2c1C(=O)c1c(O)c3c(c(O)c1C2=O)C[C@@](O)(C(=O)CO)C[C@@H]3O[C@H]1C[C@H](N)[C@H](O)[C@H](C)O1 [DOXORUBICIN] |  |  |  |  |  | 6.49 |  |
| C/C(=C\C[C@@]12CCN(C)[C@@H]1[N+](C)(C)c1ccccc12)C(=O)[O-] | inactive | inactive | inactive | inactive | inactive |  |  |
| O=c1[nH]cc(F)c(=O)[nH]1 [FLUOROURACIL] |  |  |  |  |  |  | 4.68 |
| C/C(=C\C[C@@]1(c2ccccc2N(C)C)CCN(C)C1=O)C(=O)O | inactive | inactive | inactive | inactive | inactive |  |  |
